Assay [1] has as its system dispersed pancreatic islets. Kind of assay: Dispersed islet assay (insulin secretion). It is filed as cell-based, rat. To be noted: 8 mM glucose, 0.3 μM forskolin, 30 minutes; control = 8 mM glucose and 0.3 μM forskolin. The method, then: Dispersed pancreatic islet isolation. Lean rats (male Sprague-Dawley, 200-250 g) are anesthetized with nembutal (60 mg/kg, i.p.) and the abdomen opened to expose the liver and pancreas. The pancreas is distended by injection of Hank's solution into the bile duct, and then the pancreas is excised and minced with scissors while in Hank's solution. After rinsing the tissue with buffer, the pancreas is digested for 10 minutes with collagenase, rinsed, and the islets separated from debris on a Ficoll gradient. The isolated islet fraction is then rinsed with buffer, incubated with EDTA for 8 minutes, followed by incubation with trypsin and DNAase I for an additional 10 minutes. The dispersed islets are transferred to culture media containing 8 mM glucose, seeded in “V-bottom” 96-well plates (2,500 cells per well), and cultured overnight.
For assaying insulinotropic compounds, the dispersed islets are pre-incubated in 3 mM glucose for 30 minutes. The islets are then transferred to media containing 8 mM glucose, test compounds, and 0.3 μM forskolin; and incubated for an additional 30 minutes. The media is then assayed for insulin content using, for example, a SPA assay. Insulin secretion is reported as fold over control (FOC), where the control is the amount of insulin secretion in the presence of 8 mM glucose and 0.3 μM forskolin.

The target of assay [2] is PDE3A (Homo sapiens, UniProt Q14432). Kind of assay: PDE3A inhibition assay (SPA, 3H-cAMP). The assay is classed as biochemical. To be noted: Table 2; read-out: PDE3 IC50. The method, then: (§1) Test compounds and PDE10A enzyme in assay buffer are added to 96-well whitewall/clear bottom isoplates (Wallac). The reaction is initiated by the addition of ^3H-cAMP (Amersham) or ^3H-cGMP (Amersham). Following a 45-minute incubation at room temperature, the reaction is stopped by the addition of SPA yttrium silicate beads (Amersham). The samples are incubated for an additional 30 minutes, and the plates are read in the Microbeta (Wallac) for 30 seconds in the SPA mode. Data may be expressed as a percentage of control. To measure PDE2, PDE3A, PDE4B, and PDE10A activity, 3H-cAMP may be used as a substrate; and to measure PDE5 activity, 3H-cGMP may be used as a substrate.
Sequence of PDE3A (Q14432 whole entry, species assumed): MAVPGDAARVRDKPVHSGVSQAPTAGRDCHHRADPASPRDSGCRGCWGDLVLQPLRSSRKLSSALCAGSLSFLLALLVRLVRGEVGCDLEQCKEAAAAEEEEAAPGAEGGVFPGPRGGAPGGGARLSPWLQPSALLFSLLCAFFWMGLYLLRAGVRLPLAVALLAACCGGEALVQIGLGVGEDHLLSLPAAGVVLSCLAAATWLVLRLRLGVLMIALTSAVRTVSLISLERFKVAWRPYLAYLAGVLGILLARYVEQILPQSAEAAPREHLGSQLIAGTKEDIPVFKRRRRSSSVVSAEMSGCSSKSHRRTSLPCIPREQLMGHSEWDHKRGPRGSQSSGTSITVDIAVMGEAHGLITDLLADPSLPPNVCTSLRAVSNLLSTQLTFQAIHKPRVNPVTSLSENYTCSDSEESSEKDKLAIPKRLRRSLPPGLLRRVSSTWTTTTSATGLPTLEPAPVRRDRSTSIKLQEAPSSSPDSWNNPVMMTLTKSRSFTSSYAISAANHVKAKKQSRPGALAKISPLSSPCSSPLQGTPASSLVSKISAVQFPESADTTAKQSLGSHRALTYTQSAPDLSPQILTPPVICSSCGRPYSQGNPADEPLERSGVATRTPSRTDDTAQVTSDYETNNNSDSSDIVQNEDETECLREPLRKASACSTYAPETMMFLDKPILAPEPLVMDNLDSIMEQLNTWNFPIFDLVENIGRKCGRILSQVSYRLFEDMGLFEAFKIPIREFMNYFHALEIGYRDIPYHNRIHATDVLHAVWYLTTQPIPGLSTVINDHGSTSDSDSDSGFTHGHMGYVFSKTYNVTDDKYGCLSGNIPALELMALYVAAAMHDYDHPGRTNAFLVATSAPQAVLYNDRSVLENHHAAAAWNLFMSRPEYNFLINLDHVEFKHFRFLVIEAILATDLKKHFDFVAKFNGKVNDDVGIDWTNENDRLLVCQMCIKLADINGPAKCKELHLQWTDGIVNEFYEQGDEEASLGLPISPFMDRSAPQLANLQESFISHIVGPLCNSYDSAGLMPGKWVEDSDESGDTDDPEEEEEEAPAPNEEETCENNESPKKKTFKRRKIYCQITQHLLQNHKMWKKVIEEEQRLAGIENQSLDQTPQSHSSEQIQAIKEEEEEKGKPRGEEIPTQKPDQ
(§2) These same compounds were run in inhibition assays for PDE2, PDE3A, PDE4B, and PDE5. […] The compounds are therefore selective for PDE10A.

Assay [3] has as its target PDE10A (Homo sapiens, UniProt Q9Y233). Kind of assay: PDE10A inhibition assay (SPA, 3H-cAMP). It is filed as biochemical. To be noted: Table 2. The procedure:
as §1

For assay [4], the target named is PDE5 (Homo sapiens, UniProt O76074). In words: PDE5 inhibition assay (SPA, 3H-cGMP). The assay is classed as biochemical. To be noted: Table 2. The procedure:
as §1, §2

In assay [5] the target is PDE2 (Homo sapiens, UniProt O00408). In words: PDE2 inhibition assay (SPA, 3H-cAMP). It is filed as biochemical. To be noted: Table 2. The method, then:
as §1, §2

The target of assay [6] is PDE4B (Homo sapiens, UniProt Q07343). Kind of assay: PDE4B inhibition assay (SPA, 3H-cAMP). It is filed as biochemical. To be noted: Table 2. The procedure: as §1, §2
Sequence of PDE4B (Q07343 whole entry, species assumed): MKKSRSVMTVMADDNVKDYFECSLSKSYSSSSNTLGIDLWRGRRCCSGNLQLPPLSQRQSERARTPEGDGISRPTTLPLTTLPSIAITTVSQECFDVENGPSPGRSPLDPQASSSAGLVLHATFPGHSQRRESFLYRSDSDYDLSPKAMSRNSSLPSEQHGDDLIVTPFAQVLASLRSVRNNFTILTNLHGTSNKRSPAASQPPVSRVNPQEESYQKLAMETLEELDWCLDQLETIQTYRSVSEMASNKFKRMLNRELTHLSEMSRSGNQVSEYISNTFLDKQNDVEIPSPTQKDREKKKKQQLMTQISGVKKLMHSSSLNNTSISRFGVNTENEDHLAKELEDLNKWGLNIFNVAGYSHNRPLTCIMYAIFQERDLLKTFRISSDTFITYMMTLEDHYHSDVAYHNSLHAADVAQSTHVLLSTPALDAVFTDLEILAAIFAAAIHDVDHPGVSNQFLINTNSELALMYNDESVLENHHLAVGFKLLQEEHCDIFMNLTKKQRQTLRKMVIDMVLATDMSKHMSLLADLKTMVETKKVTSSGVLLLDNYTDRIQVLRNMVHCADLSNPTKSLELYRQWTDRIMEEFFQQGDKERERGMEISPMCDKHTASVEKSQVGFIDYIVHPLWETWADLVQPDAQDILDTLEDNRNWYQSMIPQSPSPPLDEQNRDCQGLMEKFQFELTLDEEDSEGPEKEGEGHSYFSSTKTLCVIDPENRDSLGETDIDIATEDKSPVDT

Sequence of PDE10A (Q9Y233 whole entry, species assumed): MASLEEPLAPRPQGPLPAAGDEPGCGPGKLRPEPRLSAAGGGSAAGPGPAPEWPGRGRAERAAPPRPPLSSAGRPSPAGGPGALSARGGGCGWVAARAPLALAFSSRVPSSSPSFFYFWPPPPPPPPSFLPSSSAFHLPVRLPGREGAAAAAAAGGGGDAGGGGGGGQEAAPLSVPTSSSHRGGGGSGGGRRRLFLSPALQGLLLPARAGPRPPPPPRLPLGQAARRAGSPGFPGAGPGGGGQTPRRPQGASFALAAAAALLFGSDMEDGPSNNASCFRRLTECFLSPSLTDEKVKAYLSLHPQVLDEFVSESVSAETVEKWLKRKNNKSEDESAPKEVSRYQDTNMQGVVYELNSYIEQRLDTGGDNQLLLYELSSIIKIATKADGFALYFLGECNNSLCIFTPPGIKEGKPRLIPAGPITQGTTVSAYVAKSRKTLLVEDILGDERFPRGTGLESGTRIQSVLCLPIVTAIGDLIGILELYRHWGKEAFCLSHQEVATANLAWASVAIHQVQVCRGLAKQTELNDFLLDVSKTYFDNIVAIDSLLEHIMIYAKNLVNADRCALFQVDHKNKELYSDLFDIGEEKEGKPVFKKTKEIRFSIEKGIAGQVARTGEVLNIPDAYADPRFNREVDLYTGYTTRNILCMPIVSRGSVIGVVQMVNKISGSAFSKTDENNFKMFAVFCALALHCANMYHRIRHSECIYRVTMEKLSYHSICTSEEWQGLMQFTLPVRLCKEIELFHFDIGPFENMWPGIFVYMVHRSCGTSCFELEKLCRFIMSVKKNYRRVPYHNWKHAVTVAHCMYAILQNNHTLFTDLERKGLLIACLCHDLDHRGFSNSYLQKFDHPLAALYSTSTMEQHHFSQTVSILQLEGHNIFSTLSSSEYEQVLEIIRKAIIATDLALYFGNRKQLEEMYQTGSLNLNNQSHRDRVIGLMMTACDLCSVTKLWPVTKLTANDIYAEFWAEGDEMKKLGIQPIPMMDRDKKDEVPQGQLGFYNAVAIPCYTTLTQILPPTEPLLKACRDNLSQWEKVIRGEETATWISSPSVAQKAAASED
Sequence of PDE2 (O00408 whole entry): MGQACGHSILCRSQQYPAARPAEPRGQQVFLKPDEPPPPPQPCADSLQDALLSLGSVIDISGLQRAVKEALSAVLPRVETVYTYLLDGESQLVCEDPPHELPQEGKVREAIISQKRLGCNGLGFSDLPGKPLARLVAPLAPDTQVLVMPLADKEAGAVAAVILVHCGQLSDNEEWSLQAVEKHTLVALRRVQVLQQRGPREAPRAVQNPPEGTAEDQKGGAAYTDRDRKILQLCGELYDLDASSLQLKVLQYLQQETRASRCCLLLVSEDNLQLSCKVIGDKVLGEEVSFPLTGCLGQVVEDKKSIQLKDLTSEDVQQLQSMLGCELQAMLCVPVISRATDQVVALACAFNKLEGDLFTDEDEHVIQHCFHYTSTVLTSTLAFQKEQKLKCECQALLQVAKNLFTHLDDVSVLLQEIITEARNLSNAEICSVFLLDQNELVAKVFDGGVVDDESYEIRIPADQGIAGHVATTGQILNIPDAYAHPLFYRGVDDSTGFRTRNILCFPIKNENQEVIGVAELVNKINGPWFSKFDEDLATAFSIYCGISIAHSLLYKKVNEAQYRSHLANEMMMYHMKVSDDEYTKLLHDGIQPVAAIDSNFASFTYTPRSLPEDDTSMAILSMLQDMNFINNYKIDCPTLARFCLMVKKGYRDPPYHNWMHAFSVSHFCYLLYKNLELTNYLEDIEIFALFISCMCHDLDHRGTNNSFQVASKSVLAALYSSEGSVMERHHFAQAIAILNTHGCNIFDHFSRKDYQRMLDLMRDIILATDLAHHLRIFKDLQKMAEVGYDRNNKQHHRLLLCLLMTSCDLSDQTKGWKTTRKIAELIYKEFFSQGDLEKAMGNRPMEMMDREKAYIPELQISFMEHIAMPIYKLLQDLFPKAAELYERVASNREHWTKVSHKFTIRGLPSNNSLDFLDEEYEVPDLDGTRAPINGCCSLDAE

Broadly, the IC50 is the concentration that inhibits the measured activity by half. Turning to `CCOC(=O)c1c(-c2ccc(OC)cc2OC)c(C)n2c1-c1cc(OC)c(OC)cc1CC2` [B], the “Insulin secretion, Fold-over-Control (FOC)” value in assay [1] is listed as 1.44. The IC50 in assay [2] is greater than 10 µM; in assay [3], 0.0327 µM; in assay [4], greater than 10 µM; in assay [5] it was greater than 10 µM.
On to `CCOC(=O)c1c(-c2ccc(O)c3ncccc23)c(C)n2c1-c1cc(OC)c(OC)cc1CC2` [Compound A], for which the “Insulin secretion, Fold-over-Control (FOC)” value in assay [1] is reported as 1.4. Further, the IC50 was greater than 10 µM in assay [2] and 0.03 µM in assay [3].
For the compound `CCOC(=O)c1c(-c2ccc(OC)c(OC)c2)c(C)n2c1-c1cc(OC)c(OC)cc1CC2` [C], the “Insulin secretion, Fold-over-Control (FOC)” value in assay [1] is reported as 1.48. Besides, the IC50 in assay [6] is greater than 10 µM; in assay [2], greater than 10 µM; in assay [3], 0.0263 µM; in assay [4], greater than 10 µM; in assay [5] it was greater than 10 µM.

The values are drawn from patent US20070032404A1, “Methods for treating diabetes and related disorders using pde10a inhibitors” (Bayer Pharmaceuticals Corporation, priority 2003, published 2007).
